From ChEMBL document CHEMBL3400017, “3-Anhydro-6-hydroxy-ophiobolin A, a fungal sesterterpene from Bipolaris oryzae induced autophagy and promoted the degradation of α-synuclein in PC12 cells” (Bioorg Med Chem Lett, 2015) come the findings set out here.

The source made the active and inactive calls. The rule behind the calls is not given here.

In test [1] the test system is HeLa. Description: Induction of LC3 autophagy in human HeLa cells stably expressing GFP-LC3 assessed as increasing number of punctuate GFP-LC3 dots at 10 uM after 6 hrs by confocal microscopy. Type of test: functional, cell-based.
Test [2] addresses T1, c-Jun N-terminal kinase, JNK (Homo sapiens) (UniProt P45983+P53779+P45984). Nature of the test: Induction of JNK phosphorylation in human HeLa cells stably expressing GFP-LC3 assessed as increase of the LC3-II level at 5 uM after 6 hrs by Western blot analysis in presence of SP600125. The class given is cell-based. A general note: Immunoblotting shows a protein as a band on a membrane.

Test [3] deals with HeLa. Description: Induction of mitochondrial dysfunction in human HeLa cells stably expressing GFP-LC3 assessed as loss of mitochondrial membrane potential at 10 uM after 6 to 24 hrs using TMRE staining by confocal microscopy. The class given is functional, cell-based.
Test [4] deals with HeLa. Nature of the test: Induction of LC3 autophagy in Beclin1 KO human HeLa cells stably expressing GFP-LC3 and transfected of Beclin2 siRNA assessed as increase of the LC3-II level at 10 uM after 6 hrs by Western blotting analysis. Type of test: functional, cell-based.
Test [5] relates to HeLa. Nature of the test: Induction of LC3 autophagy in human HeLa cells stably expressing GFP-LC3 assessed as increase of the LC3-II level at 10 uM after 6 hrs by Western blotting analysis in presence of bafilomycin A1. The class given is functional, cell-based.
The subject of test [6] is HeLa. Description: Induction of cytosolic ROS production in human HeLa cells at 5 to 10 uM after 24 hrs using DCF by flow cytometry. Type of test: functional, cell-based. Background: Flow cytometry measures light scatter and fluorescence of single cells or particles in a stream.
Test [7] deals with HeLa. Description: Induction of ROS production in human HeLa cells stably expressing GFP-LC3 assessed as increase of the LC3-II level at 5 to 10 uM after 6 hrs by Western blot analysis in presence of ROS scavenger NAC. Type of test: functional, cell-based.
Test [8] concerns HeLa. Nature of the test: Induction of LC3 autophagy in ATG5 KO human HeLa cells stably expressing GFP-LC3 assessed as increasing number of punctuate GFP-LC3 dots at 10 uM after 6 hrs by confocal microscopy. The class given is functional, cell-based.
For test [9], the system named is HeLa. Description: Induction of mitochondrial dysfunction in human HeLa cells assessed as reduction in mitochondrial mass at 10 uM after 6 to 24 hrs using anti-Tom20 and anti-Tim23 antibodies by Western blotting. The class given is functional, cell-based.
Test [10] has as its system PC-12. Nature of the test: Induction of autophagic degradation of alpha-synuclein in […] KO rat PC12 cells cotransfected with GFP-LC3 and alpha-synuclein-myc at 10 uM after 12 hrs by Western blot analysis. The class given is functional, cell-based.
For test [11], the system named is HeLa. Nature of the test: Induction of mitochondrial dysfunction in human HeLa cells stably expressing GFP-LC3 at 10 uM after 6 to 24 hrs using anti-Tim23 antibodies by Western blotting. Type of test: functional, cell-based.
Another test has as its system U2OS. Nature of the test: Induction of LC3 autophagy in human U2OS cells stably expressing GFP-LC3 assessed as increasing number of punctuate GFP-LC3 dots at 10 uM after 6 hrs by confocal microscopy. The class given is functional, cell-based.
The subject of test [12] is HeLa. Description: Induction of LC3 autophagy in human HeLa cells stably expressing GFP-LC3 assessed as increase of the LC3-II level at 1 to 20 uM by Western blotting analysis. Type of test: functional, cell-based. The conditions noted are these: TDE = time-dependent effect.
Test [13] has as its system HeLa. Nature of the test: Induction of LC3 autophagy in Beclin1 KO human HeLa cells stably expressing GFP-LC3 assessed as increase of the LC3-II level at 10 uM after 6 hrs by Western blotting analysis. Type of test: functional, cell-based.
Test [14] relates to HeLa. Nature of the test: Induction of mitochondrial dysfunction in human HeLa cells stably expressing GFP-LC3 assessed as loss of mitochondrial membrane potential at 10 uM after 6 to 24 hrs using TMRE staining by flow cytometry. The class given is functional, cell-based.
Test [15] relates to HeLa. Nature of the test: Induction of LC3 autophagy in human HeLa cells stably expressing GFP-LC3 assessed as increasing number of punctuate GFP-LC3 dots at 10 uM after 6 hrs by confocal microscopy in presence of bafilomycin A1. Type of test: functional, cell-based.
For test [16], the target named is T1, c-Jun N-terminal kinase, JNK (Homo sapiens). Nature of the test: Induction of JNK phosphorylation in human HeLa cells stably expressing GFP-LC3 assessed as increase of the LC3-II level at 5 uM after 6 hrs by Western blot analysis. The class given is cell-based.
The target is the same in test [17]. Nature of the test: Induction of JNK phosphorylation in human HeLa cells stably expressing GFP-LC3 assessed as punctuate GFP-LC3 formation at 5 uM after 6 hrs by confocal microscopy. Type of test: cell-based.
For test [18], the system named is HeLa. Description: Induction of LC3 autophagy in ATG5 KO human HeLa cells stably expressing GFP-LC3 assessed as increase of the LC3-II level at 10 uM after 6 hrs by Western blotting analysis. Type of test: functional, cell-based.
Test [19] concerns HeLa. Description: Induction of ROS production in human HeLa cells stably expressing GFP-LC3 assessed as increasing number of punctuate GFP-LC3 dots at 5 to 10 uM after 6 hrs by confocal microscopy in presence of ROS scavenger NAC. The class given is functional, cell-based.
For test [20], the system named is HeLa. Description: Induction of LC3 autophagy in human HeLa cells stably expressing GFP-LC3 assessed as increasing number of punctuate GFP-LC3 dots after 6 to 24 hrs by confocal microscopy. The class given is functional, cell-based.
For test [21], the target named is T1, c-Jun N-terminal kinase, JNK (Homo sapiens). Nature of the test: Induction of JNK phosphorylation in human HeLa cells stably expressing GFP-LC3 assessed as punctuate GFP-LC3 formation at 5 uM after 6 hrs by confocal microscopy in presence of SP600125. The class given is cell-based.
Test [22] has as its system HeLa. Nature of the test: Induction of autophagy in human HeLa cells stably expressing GFP-LC3 assessed as increasing number of punctuate GFP-LC3 dots by high-throughput screening. The class given is functional, cell-based.
In test [23] the test system is HeLa. Nature of the test: Induction of mitochondrial ROS production in human HeLa cells at 5 to 10 uM after 24 hrs using Mito-SOX by flow cytometry. Type of test: functional, cell-based.
Test [24] has as its system HeLa. Description: Induction of mitochondrial dysfunction in human HeLa cells at 10 uM after 6 hrs using anti-Tim23 antibody by confocal microscopy. Type of test: functional, cell-based.
Test [25] deals with PC-12. Nature of the test: Induction of autophagic degradation of alpha-synuclein in rat PC12 cells cotransfected with GFP-LC3 and alpha-synuclein-myc assessed as reduction in protein level at 10 uM after 12 hrs by Western blot analysis. The class given is functional, cell-based.
Test [26] relates to HeLa. Description: Induction of LC3 autophagy in human HeLa cells stably expressing GFP-LC3 assessed as increase of the LC3-II level after 12 to 24 hrs by Western blotting analysis. Type of test: functional, cell-based.
Test [27] concerns HeLa. Nature of the test: Induction of LC3 autophagy in human HeLa cells stably expressing GFP-LC3 assessed as increase of the LC3-II level at 10 uM after 6 hrs by immunoblotting. Type of test: functional, cell-based.
The next test concerns SH-SY5Y. Description: Induction of LC3 autophagy in human SH-SY5Y cells stably expressing GFP-LC3 assessed as increasing number of punctuate GFP-LC3 dots at 10 uM after 6 hrs by confocal microscopy. Type of test: functional, cell-based.
Test [28] concerns PC-12. Description: Induction of autophagic degradation of alpha-synuclein in rat PC12 cells cotransfected with GFP-LC3 and alpha-synuclein-myc at 10 uM after 12 hrs by Western blot analysis in presence of bafilomycin A1. Type of test: functional, cell-based.
The test system of test [29] is HeLa. Nature of the test: Induction of LC3 autophagy in human HeLa cells stably expressing GFP-LC3 assessed as increasing number of punctuate GFP-LC3 dots at 5 to 10 uM by confocal microscopy. The class given is functional, cell-based. To be noted: TDE = time-dependent effect.
Test [30] deals with PC-12. Description: Induction of autophagic degradation of alpha-synuclein in rat PC12 cells cotransfected with GFP-LC3 assessed as co-localiztion of alpha-synuclein with GFP-LC3 puncta by confocal microscopy. Type of test: functional, cell-based.
The subject of test [31] is HeLa. Nature of the test: Induction of mitochondrial dysfunction in human HeLa cells at 10 uM after 6 to 24 hrs using anti-Tom20 and anti-Tim23 antibodies by Western blotting. Type of test: functional, cell-based.

Take `CC(C)=C[C@H]1C[C@H](C)[C@]2(CC[C@]3(C)C[C@@H]4C(C)=CC(=O)[C@@H]4/C(C=O)=C\C[C@H]32)O1`: in the test on HeLa [1], the outcome was inactive.

For `CC(C)=C[C@H]1C[C@H](C)[C@]2(CC[C@]3(C)C[C@@H]4C(C)=CC(=O)[C@]4(O)/C(C=O)=C\C[C@H]32)O1`, the result (in test [2]; with HeLa [4]; in the test on HeLa [7]; with HeLa [8]; with HeLa [9]; in the test with PC-12 [10]) was inactive. The result (in the test with HeLa [11]; with HeLa [18]; in the test on HeLa [19]; in test [21]; with PC-12 [28]; with HeLa [31]) was inactive. Also, the outcome in the test with HeLa [3], in the test with HeLa [5], in the test with HeLa [6], in the test on U2OS, in the test with HeLa [1] and in the test on HeLa [13] was Active. Moreover, the result (in the test on HeLa [14]; in the test on HeLa [15]; in [16]; in test [17]; in the test with HeLa [22]; in the test with HeLa [23]) was Active. The outcome in the test on HeLa [24], with PC-12 [25], in the test on HeLa [27], in the test on SH-SY5Y and in the test with PC-12 [30] was Active. The Activity result in the test on HeLa [12] was “tde”; with HeLa [20], “Dose-dependent effect”; with HeLa [26], “Dose-dependent effect”; with HeLa [29], “tde”.
